Experimental data from ChEMBL document CHEMBL1201862, “PubChem BioAssay data set” (2004).
Activity calls are given as the source filed them.

Key:
Caspase-6 = target: T1, Caspase-6 (Homo sapiens, UniProt P55212); assay: inhibition of CASP6 peptide cleavage – biochemical, VEID-R110 fluorescence, cherry-pick, dose response (AID 720632)
T1 sequence (P55212 whole entry): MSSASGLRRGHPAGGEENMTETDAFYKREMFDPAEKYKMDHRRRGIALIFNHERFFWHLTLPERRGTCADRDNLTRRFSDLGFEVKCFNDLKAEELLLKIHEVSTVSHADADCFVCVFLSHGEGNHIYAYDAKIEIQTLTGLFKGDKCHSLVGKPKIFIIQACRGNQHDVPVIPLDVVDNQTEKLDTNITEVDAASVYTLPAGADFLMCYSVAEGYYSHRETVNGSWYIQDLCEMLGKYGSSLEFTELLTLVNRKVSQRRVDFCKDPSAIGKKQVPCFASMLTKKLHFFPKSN

Caspase-3 = target: T2, Caspase-3 (Homo sapiens, UniProt P42574); assay: Dose-response confirmation of uHTS inhibitor hits of Sentrin-Specific Protease 8 in a Caspase-3 Fluorescence assay.; type: functional
T2 sequence (P42574 whole entry): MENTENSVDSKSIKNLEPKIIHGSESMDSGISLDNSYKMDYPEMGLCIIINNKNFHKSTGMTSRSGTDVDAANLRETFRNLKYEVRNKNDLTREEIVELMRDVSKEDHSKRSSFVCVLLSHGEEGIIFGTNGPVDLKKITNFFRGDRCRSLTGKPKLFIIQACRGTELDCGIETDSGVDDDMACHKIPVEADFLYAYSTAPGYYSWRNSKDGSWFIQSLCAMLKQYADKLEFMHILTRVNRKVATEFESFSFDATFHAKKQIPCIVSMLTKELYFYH

[1] = target: T3, Sentrin-specific protease 8 (Homo sapiens, UniProt Q96LD8); type: functional
T3 sequence (Q96LD8 whole entry): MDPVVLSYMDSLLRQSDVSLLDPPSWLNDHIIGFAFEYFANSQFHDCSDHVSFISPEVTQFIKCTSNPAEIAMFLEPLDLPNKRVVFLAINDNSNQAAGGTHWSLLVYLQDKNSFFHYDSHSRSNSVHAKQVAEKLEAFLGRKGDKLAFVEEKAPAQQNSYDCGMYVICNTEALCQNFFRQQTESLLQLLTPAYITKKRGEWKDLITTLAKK

[2] = target: T3, Sentrin-specific protease 8; type: functional; remark: listed apart in the source
Plasmodium falciparum = assay: antimalarial activity against intraerythrocytic 3D7 parasites – 3D7 strain, red blood cells, SYBR Green, cherry-picked, dose response (AID 652047); type: functional
Mu-type opioid receptor = Mu-type opioid receptor (Homo sapiens, UniProt P35372); type: functional, cell-based;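 note: U2OS cells with beta-arrestin recruitment to OPRM1 by beta-gal complementation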
Mu-type opioid receptor, sequence (P35372 whole entry): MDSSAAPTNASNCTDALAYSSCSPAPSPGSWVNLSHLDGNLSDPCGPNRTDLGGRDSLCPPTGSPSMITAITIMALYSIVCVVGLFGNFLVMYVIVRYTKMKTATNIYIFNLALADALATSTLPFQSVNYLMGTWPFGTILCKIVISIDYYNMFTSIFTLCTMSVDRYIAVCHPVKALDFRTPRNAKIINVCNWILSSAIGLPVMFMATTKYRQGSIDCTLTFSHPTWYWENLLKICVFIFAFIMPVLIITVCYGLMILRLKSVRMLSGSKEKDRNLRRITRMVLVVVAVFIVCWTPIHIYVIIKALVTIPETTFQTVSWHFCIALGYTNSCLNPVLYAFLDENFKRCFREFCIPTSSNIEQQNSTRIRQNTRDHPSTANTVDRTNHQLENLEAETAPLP

[3] = target: 5-hydroxytryptamine receptor 2A (Mus musculus, UniProt P35363); type: functional, cell-based;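 note: CHO-K1 cells with tagged receptor and beta-arrestin; agonist potency measured as compound-induced activation of the receptor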
5-hydroxytryptamine receptor 2A, sequence (P35363 whole entry): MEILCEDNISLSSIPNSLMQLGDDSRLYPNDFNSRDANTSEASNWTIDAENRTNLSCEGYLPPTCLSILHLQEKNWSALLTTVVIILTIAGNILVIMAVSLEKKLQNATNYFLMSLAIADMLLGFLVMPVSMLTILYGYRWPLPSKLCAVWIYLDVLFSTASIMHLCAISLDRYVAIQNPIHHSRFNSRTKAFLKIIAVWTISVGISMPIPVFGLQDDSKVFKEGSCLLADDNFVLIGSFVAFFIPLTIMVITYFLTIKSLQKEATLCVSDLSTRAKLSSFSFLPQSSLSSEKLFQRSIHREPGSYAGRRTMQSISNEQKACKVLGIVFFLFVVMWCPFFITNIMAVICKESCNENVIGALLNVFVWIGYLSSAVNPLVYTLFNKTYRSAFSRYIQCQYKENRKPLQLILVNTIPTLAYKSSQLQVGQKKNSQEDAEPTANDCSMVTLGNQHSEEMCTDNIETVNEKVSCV

[4] = viability loss in LCL cells – cell-based, plate reader, dry powder, set 2, cytotoxicity control, dose response (AID 624367); type: functional
Paired box protein Pax-8 = Paired box protein Pax-8 (Homo sapiens, UniProt Q06710); assay: PAX8 transcriptional activity inhibition in RMG-I – RMG-I cells, luciferase, cherry-pick, dose response (AID 687027); type: functional, cell-based;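 note: luciferase reporter driven by Pax8 target thyroperoxidase promoter measured by SteadyGlo luminescence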
Paired box protein Pax-8, sequence (Q06710 whole entry): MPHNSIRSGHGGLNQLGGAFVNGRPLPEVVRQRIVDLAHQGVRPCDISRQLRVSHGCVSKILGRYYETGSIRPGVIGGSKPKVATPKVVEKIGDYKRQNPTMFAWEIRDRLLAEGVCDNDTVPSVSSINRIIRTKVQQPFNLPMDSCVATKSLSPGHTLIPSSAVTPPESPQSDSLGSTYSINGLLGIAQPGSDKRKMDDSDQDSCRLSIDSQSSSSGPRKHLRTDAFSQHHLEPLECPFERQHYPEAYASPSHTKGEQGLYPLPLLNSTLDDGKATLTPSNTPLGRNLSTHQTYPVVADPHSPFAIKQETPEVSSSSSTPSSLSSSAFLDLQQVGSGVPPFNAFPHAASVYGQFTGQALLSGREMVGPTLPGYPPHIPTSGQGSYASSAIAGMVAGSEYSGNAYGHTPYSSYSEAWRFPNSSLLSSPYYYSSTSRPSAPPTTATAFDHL

[5] = OVCAR-3 cell viability loss – plate reader, dry powder samples, PAX8 inhibitor project, dose response (AID 743044); type: functional, cell-based
[6] = OVCAR8 cell viability loss – plate reader, dry powder samples, PAX8 project, dose response (AID 743197); type: functional, cell-based; details: OVCAR-8
[7] = IGROV1 cell killing – plate reader, dry powder samples, PAX8 inhibitor project, dose response (AID 743043); type: functional, cell-based; details: IGROV-1
[8] = CMV-driven luciferase expression suppression in HEK293 – cell-based, luminescence, dry powder, counter-screen for Pax8 inhibitor project, dose response (AID 743020); type: functional

CCOCCOc1cc(NCc2ccccc2)c2ncn(C(C)C)c2c1
AC50 (Caspase-6): 9.77 µM (active) | IC50 (Caspase-3): 45.5 µM (active) | IC50 [1]: 8.07 µM (active) | IC50 [2]: 9.3 µM (active)

CCCc1cc(C(N)=O)c(NC(=O)c2cc(C)on2)s1
AbsAC35 (Plasmodium falciparum): 70.04 µM

CCOC(=O)C1(Cc2ccc(Cl)cc2)CCN(C(C)CCn2cccn2)CC1 (stereo not given)
EC50 (Mu-type opioid receptor): 92.5 µM (inactive) | EC50 [3]: 52.2 µM (inactive)

Cc1noc(C)c1S(=O)(=O)Nc1ccc2c(c1)C(=O)N([C@H](C)CO)C[C@@H](C)[C@@H](CN(C)Cc1ccc(C(F)(F)F)cc1)OCCCC[C@H](C)O2
AbsAC35 [4]: 47.16 µM | AC50 (Paired box protein Pax-8): 8.19 µM (active) | AC50 [5]: 28 µM (active) | AC50 [6]: 46.4 µM (active) | AC50 [7]: 47.1 µM (active)

C[C@@H]1CN([C@H](C)CO)C(=O)c2cc(NC(=O)Nc3ccc(F)cc3)ccc2O[C@@H](C)CCCCO[C@H]1CN(C)Cc1ccc(C(F)(F)F)cc1
AC50 (Paired box protein Pax-8): 4.13 µM (active) | AC50 [5]: 15.8 µM (active) | AC50 [8]: 37.9 µM (active)
